pKi: −log10 of the molar value.
Assay: Binding affinity against Opioid receptor delta 1 was determined in brain membrane preparations from male Hartley guinea-pigs

Compound	pKi
CCC1Oc2c(O)cccc2C12CCN(C)CC2 (stereo not drawn) [2-ethyl-1'-methylspiro[2,3-dihydrobenzo[b]furan-3,4'-(hexahydropyridine)]-7-ol]	6.07
CN1CCC2(CC1)COc1c(O)cccc12 [1'-methylspiro[2,3-dihydrobenzo[b]furan-3,4'-(hexahydropyridine)]-7-ol]	< 4.00
CC1Oc2c(O)cccc2C12CCN(C)CC2 (stereo not drawn) [1',2-dimethylspiro[2,3-dihydrobenzo[b]furan-3,4'-(hexahydropyridine)]-7-ol]	5.62

Reference: BindingDB's records for doi:10.1016/s0960-894x(98)00318-7 (National Taiwan University, 1999)
